# Test results as given in paper PMC8507198 (Poultry Science, 2021).
# Columns and labels:
# rats [1] = conditions: administration of NPS, ref Zhang et al., 2014; cited from earlier work
# chickens = conditions: ref Smith et al., 2006; cited from earlier work
# rodents = conditions: central administration, cited from earlier work
# rats [2] = conditions: ref Smith et al., 2006; cited from earlier work
# chicken NPSR1 [3] = test: pGL3-NFAT-RE-luciferase reporter assay; format: cell-based; conditions: 2-APB (100 μM) added 0.5 h before cNPS20 (10 nM, 6 h); CHO cells expressing cNPSR1; P<0.01 vs. peptide treatment; Figure 4D
# chicken NPSR1 [4] = test: pGL3-CRE-luciferase reporter assay; format: cell-based; conditions: H89 (10 μM) added 0.5 h before cNPS20 (10 nM, 6 h); CHO cells expressing cNPSR1; P<0.01 vs. peptide treatment; Figure 4E
compound,measurement,setting,value
neuropeptide S (SFRNGVGSGIKKTSFRRAKS; printed: Ser-Phe-Arg-Asn-Gly- Val-Gly-Ser-Gly-Ile-Lys-Lys-Thr-Ser-Phe-Arg-Arg-Ala-Lys-Ser) [NPS],Anxiolytic and antinociceptive effects,rats [1],"anxiolytic, and antinociceptive effects in rats"
same,"Hypothalamus-pituitary-adrenal axis and food intake, chickens",chickens,stimulate the hypothalamus-pituitary-adrenal axis and inhibit food intake in rats and chickens
same,Length of ketamine-induced anesthesia,"rodents; ref Kushikata et al., 2011",decreased the length of ketamine-induced anesthesia
same,Memory,"rodents; ref Okamura et al., 2011",enhanced memory
same,Anxiety-related effect,"rodents; ref Xu et al., 2004",anxiolytic effects
same,ACTH and corticosterone secretion (hypothalamic-pituitary-adrenal axis activity),rats [2],stimulation of adrenocorticotropic hormone (ACTH) and corticosterone secretion in rats
same,"Hypothalamus-pituitary-adrenal axis and food intake, rats",rats [2],stimulate the hypothalamus-pituitary-adrenal axis and inhibit food intake in rats and chickens
NCCOB(c1ccccc1)c1ccccc1 [2-APB],Effect on cNPS20-induced NFAT-RE luciferase activity,chicken NPSR1 [3],could block cNPS20-induced luciferase activity of CHO cells expressing cNPSR1
O=S(=O)(NCCNC/C=C/c1ccc(Br)cc1)c1cccc2cnccc12 [H89],Effect on cNPS20-induced CRE luciferase activity,chicken NPSR1 [4],significantly inhibited
